pIC50: −log10 of the molar value.

T1 sequence (P42336 with tags, fused parts or gaps limits assumed): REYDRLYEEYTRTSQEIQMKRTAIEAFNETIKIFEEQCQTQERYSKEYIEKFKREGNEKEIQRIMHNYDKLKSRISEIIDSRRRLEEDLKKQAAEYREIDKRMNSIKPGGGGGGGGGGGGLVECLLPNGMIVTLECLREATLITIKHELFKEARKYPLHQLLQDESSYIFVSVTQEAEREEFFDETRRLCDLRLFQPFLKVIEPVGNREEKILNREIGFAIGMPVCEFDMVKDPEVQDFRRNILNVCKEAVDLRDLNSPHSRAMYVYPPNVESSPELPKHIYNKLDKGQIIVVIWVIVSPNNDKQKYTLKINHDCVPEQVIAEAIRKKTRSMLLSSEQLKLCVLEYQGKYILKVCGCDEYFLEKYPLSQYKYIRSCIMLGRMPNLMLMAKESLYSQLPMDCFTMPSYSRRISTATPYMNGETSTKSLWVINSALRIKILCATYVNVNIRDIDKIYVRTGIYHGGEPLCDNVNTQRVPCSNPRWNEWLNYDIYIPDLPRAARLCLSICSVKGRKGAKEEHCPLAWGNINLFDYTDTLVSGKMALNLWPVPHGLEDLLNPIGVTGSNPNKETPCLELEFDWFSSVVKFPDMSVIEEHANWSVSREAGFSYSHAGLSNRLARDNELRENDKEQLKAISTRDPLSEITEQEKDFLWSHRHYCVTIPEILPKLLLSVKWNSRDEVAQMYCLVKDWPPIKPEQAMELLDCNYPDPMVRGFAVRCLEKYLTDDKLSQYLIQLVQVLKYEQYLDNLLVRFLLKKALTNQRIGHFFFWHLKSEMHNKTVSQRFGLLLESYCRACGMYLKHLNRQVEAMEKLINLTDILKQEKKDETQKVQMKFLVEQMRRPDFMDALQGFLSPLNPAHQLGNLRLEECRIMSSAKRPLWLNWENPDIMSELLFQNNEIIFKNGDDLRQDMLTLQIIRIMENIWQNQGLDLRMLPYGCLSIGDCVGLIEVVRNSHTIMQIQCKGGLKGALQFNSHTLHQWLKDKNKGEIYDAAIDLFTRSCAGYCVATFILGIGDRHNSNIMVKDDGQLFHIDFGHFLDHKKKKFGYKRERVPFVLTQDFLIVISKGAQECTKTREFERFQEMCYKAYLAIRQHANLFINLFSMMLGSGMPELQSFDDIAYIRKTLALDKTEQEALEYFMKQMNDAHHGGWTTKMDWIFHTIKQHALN

The first experiment concerns the target T1, PI3K alfa (Homo sapiens, UniProt P42336).
T1 construct: His tag (C); made in house; host or cells: baculovirus BV1075; Tn5 (Trichoplusia ni) or TiniPro insect cells
Description: PI3K alpha kinase assay (Kinase-Glo luminescence). The class given is biochemical. The conditions noted are these: read-out: EPK_PI3Kalfa/IC50. On the procedure: In a more preferred assay, the kinase reaction is performed in a final volume of 10 μL per well of a low volume non binding CORNING, 384 well black plate (Cat. No. #3676). The final concentrations of ATP and phosphatidyl inositol (PI) in the assay are 1 μM and 10 μg/mL respectively. The reaction is started by the addition of ATP.
The components of the assay are added per well as follows:
50 nL test compounds in 90% DMSO per well, in columns 1-20, 8 concentrations (⅓ and 1/3.33 serial dilution step) in single. • Low control: […] of 90% DMSO in half the wells of columns 23-24 (0.45% in final). • High control: 50 nL of reference compound (e.g. compound of Example 7 in WO 2006/122806) in the other half of columns 23-24 (2.5 μM in final). • Standard: 50 nL of reference compound as just mentioned diluted as the test compounds in columns 21-22 • 20 mL ‘buffer’ are prepared per assay: • 200 μL of 1M TRIS HCl pH7.5 (10 mM in final) • 60 μL of 1M MgCl2 (3 mM in final) • 500 μL of 2M NaCl (50 mM in final) • 100 μL of 10% CHAPS (0.05% in final) • 200 μL of 100 mM DTT (1 mM in final) • 18.94 mL of nanopure water • 10 mL ‘PI’ are prepared per assay: • 200 μL of 1 mg/ml L-alpha-Phosphatidylinositol (Liver Bovine, Avanti Polar Lipids Cat. No. 840042C MW=909.12) prepared in 3% OctylGlucoside (10 μg/ml in final) • 9.8 mL of ‘buffer’ • 10 mL ‘ATP’ are prepared per assay: • 6.7 μL of 3 mM stock of ATP giving a final concentration of 1 μM per well • 10 mL of ‘buffer’ • 2.5 mL of each PI3K construct are prepared per assay in ‘PI’ with the following final concentration: • 10 nM PI3K alfa EMV B1075 • 25 nM beta EMV BV949 • 10 nM delta EMV BV1060 • 150 nM gamma EMV BV950 • 5 μL of ‘PI/PI3K’ are added per well. • 5 μl ‘ATP’ are added per well to start the reaction. • The plates are then incubated at room temperature for 60 minutes (alfa, beta, delta) or 120 minutes (gamma). • The reaction is terminated by the addition of 10 μL Kinase-Glo (Promega Cat. No. #6714). • The assay plates are read after 10 minutes in Synergy 2 reader (BioTek, Vermont USA) with an integration time of 100 milliseconds and sensitivity set to 191. • Output: The High control is around 60′000 counts and the Low control is 30′000 or lower • This luminescence assay gives a useful Z′ ratio between 0.4 and 0.7
Two different constructs, BV 1052 and BV 1075, are used to generate the PI3 Kinase α proteins for compound screening.
PI3K alpha is purified in three chromatographic steps: immobilized metal affinity chromatography on a Ni Sepharose resin (GE Healthcare, belonging to General Electric Company, Fairfield, Conn., USA), gel filtration utilizing a Superdex 200 26/60 column (GE Healthcare), and finally a cation exchange step on a SP-XL column (GE Healthcare). All buffers are chilled to 4° C. and lysis is performed chilled on ice. Column fractionation is performed rapidly at room temperature.
IC50 is determined by a four parameter curve fitting routine that comes along with “excel fit”. A 4 Parameter logistic equation is used to calculate IC50 values (IDBS XLfit) of the percentage inhibition of each compound at 8 concentrations (usually 10, 3.0, 1.0, 0.3, 0.1, 0.030, 0.010 and 0.003 μM). Alternatively, IC50 values are calculated using idbsXLfit model 204, which is a 4 parameter logistic model.
A general note: In Kinase-Glo more light means more ATP remaining.
For `Cc1ncccc1-n1c(=O)n(C)c2cnc3ccc(-c4cncc(N)c4)cc3c21` [Example 2.25, 8-(5-Amino-pyridin-3-yl)-3-methyl-1-(2-methyl-pyridin-3-yl)-1,3-dihydro-imidazo[4,5-c]quinolin-2-one], the pIC50 was 7.19.

On to `Cc1nc(N2CCN(C)C(=O)C2)ccc1-n1c(=O)n(C)c2cnc3ccc(-c4cnc(N)c(C(F)(F)F)c4)cc3c21` [Example 21.1, 8-(6-Amino-5-trifluoromethyl-pyridin-3-yl)-3-methyl-1-[2-methyl-6-(4-methyl-3-oxo-piperazin-1-yl)-pyridin-3-yl]-1,3-dihydro-imidazo[4,5-c]quinolin-2-one], for which the pIC50 is 8.30.

Consider `COCc1ncc(-c2ccc3ncc4c(c3c2)n(-c2ccc(N3CCC3)nc2C)c(=O)n4C)cc1OC(C)C` [Example 23.2, 1-(6-Azetidin-1-yl-2-methyl-pyridin-3-yl)-8-(5-isopropoxy-6-methoxymethyl-pyridin-3-yl)-3-methyl-1,3-dihydro-imidazo[4,5-c]quinolin-2-one], for which the pIC50 was 7.48.

On to `Cc1nc(N2CCC2)ccc1-n1c(=O)n(C)c2cnc3ccc(-c4cncc(C(C)(C)O)c4)cc3c21` [Example 23.3, 1-(6-Azetidin-1-yl-2-methyl-pyridin-3-yl)-8-[5-(1-hydroxy-1-methyl-ethyl)-pyridin-3-yl]-3-methyl-1,3-dihydro-imidazo[4,5-c]quinolin-2-one], for which the pIC50 is 8.15.

For the molecule `CNc1ccc(-c2ccc3ncc4c(c3c2)n(-c2ccc(N3CCC3)nc2C)c(=O)n4C)cn1` [Example 23.4, 1-(6-Azetidin-1-yl-2-methyl-pyridin-3-yl)-3-methyl-8-(6-methylamino-pyridin-3-yl)-1,3-dihydro-imidazo[4,5-c]quinolin-2-one], the pIC50 was 7.57.

Consider `CCOc1cc(-c2ccc3ncc4c(c3c2)n(-c2ccc(N3CCC3)nc2C)c(=O)n4C)cnc1COC` [Example 23.5, 1-(6-Azetidin-1-yl-2-methyl-pyridin-3-yl)-8-(5-ethoxy-6-methoxymethyl-pyridin-3-yl)-3-methyl-1,3-dihydro-imidazo[4,5-c]quinolin-2-one], for which the pIC50 is 7.68.

In the case of `COCc1ncc(-c2ccc3ncc4c(c3c2)n(-c2ccc(N3CCC3)nc2C)c(=O)n4C)cc1OC` [Example 23.6, 1-(6-Azetidin-1-yl-2-methyl-pyridin-3-yl)-8-(5-methoxy-6-methoxymethyl-pyridin-3-yl)-3-methyl-1,3-dihydro-imidazo[4,5-c]quinolin-2-one], the pIC50 was 7.36.

For `Cc1nc(N2CCC2)ccc1-n1c(=O)n(C)c2cnc3ccc(-c4cncc(OC(C)C)c4)cc3c21` [Example 23.9, 1-(6-Azetidin-1-yl-2-methyl-pyridin-3-yl)-8-(5-isopropoxy-pyridin-3-yl)-3-methyl-1,3-dihydro-imidazo[4,5-c]quinolin-2-one], the pIC50 was 7.48.

As for `CCNc1cc(-c2ccc3ncc4c(c3c2)n(-c2ccc(N3CC(O)C3)nc2C)c(=O)n4C)cnc1CO` [Example 29.2, 8-(5-Ethylamino-6-hydroxymethyl-pyridin-3-yl)-1-[6-(3-hydroxy-azetidin-1-yl)-2-methyl-pyridin-3-yl]-3-methyl-1,3-dihydro-imidazo[4,5-c]quinolin-2-one], the pIC50 was 8.05.

As to `CNc1ncc(-c2ccc3ncc4c(c3c2)n(-c2ccc(C(C)(C)O)nc2C)c(=O)n4C)cc1F` [Example 31.1, 8-(5-Fluoro-6-methylamino-pyridin-3-yl)-1-[6-(1-hydroxy-1-methyl-ethyl)-2-methyl-pyridin-3-yl]-3-methyl-1,3-dihydro-imidazo[4,5-c]quinolin-2-one], the pIC50 is 7.64.

On to `CCOc1ccc(-c2ccc3ncc4c(c3c2)n(-c2ccc(C(C)(C)O)nc2C)c(=O)n4C)cn1` [Example 31.4, 8-(6-Ethoxy-pyridin-3-yl)-1-[6-(1-hydroxy-1-methyl-ethyl)-2-methyl-pyridin-3-yl]-3-methyl-1,3-dihydro-imidazo[4,5-c]quinolin-2-one], for which the pIC50 is 7.08.

Staying with this experiment, now noted: read-out: PI3Kalfa/IC50.
With `COc1ccc(-c2ccc3ncc4c(c3c2)n(-c2cccnc2C)c(=O)n4C)cc1OC` [Example 2.9, 8-(3,4-Dimethoxy-phenyl)-3-methyl-1-(2-methyl-pyridin-3-yl)-1,3-dihydro-imidazo[4,5-c]quinolin-2-one], the pIC50 is 7.92.

`CCOc1ncc(-c2ccc3ncc4c(c3c2)n(-c2ncccc2C)c(=O)n4C)cn1` [Example 3.1, 8-(2-Ethoxy-pyrimidin-5-yl)-3-methyl-1-(3-methyl-pyridin-2-yl)-1,3-dihydro-imidazo[4,5-c]quinolin-2-one]: the pIC50 is 6.39.

For `CNc1ncc(-c2ccc3ncc4c(c3c2)n(-c2ncccc2C)c(=O)n4C)cn1` [Example 3.4, 3-Methyl-8-(2-methylamino-pyrimidin-5-yl)-1-(3-methyl-pyridin-2-yl)-1,3-dihydro-imidazo[4,5-c]quinolin-2-one], the pIC50 was 7.10.

Consider `CNC(=O)c1ccc(-c2ccc3ncc4c(c3c2)n(-c2ncccc2C)c(=O)n4C)cc1` [Example 3.5, N-Methyl-4-[3-methyl-1-(3-methyl-pyridin-2-yl)-2-oxo-2,3-dihydro-1H-imidazo[4,5-c]quinolin-8-yl]-benzamide], for which the pIC50 is 7.28.

For the molecule `CCOc1ccc(-c2ccc3ncc4c(c3c2)n(-c2ncccc2C)c(=O)n4C)cn1` [Example 3.6, 8-(6-Ethoxy-pyridin-3-yl)-3-methyl-1-(3-methyl-pyridin-2-yl)-1,3-dihydro-imidazo[4,5-c]quinolin-2-one], the pIC50 was 6.69.

Consider `Cc1cccnc1-n1c(=O)n(C)c2cnc3ccc(-c4ccc(CO)nc4)cc3c21` [Example 3.9, 8-(6-Hydroxymethyl-pyridin-3-yl)-3-methyl-1-(3-methyl-pyridin-2-yl)-1,3-dihydro-imidazo[4,5-c]quinolin-2-one], for which the pIC50 is 6.42.

As to `COc1ccc(-c2ccc3ncc4c(c3c2)n(-c2ncccc2C)c(=O)n4C)cc1OC` [Example 3.10, 8-(3,4-Dimethoxy-phenyl)-3-methyl-1-(3-methyl-pyridin-2-yl)-1,3-dihydro-imidazo[4,5-c]quinolin-2-one], the pIC50 is 7.24.

Consider `Cc1cccnc1-n1c(=O)n(C)c2cnc3ccc(-c4ccc(N(C)C)nc4)cc3c21` [Example 3.11, 8-(6-Dimethylamino-pyridin-3-yl)-3-methyl-1-(3-methyl-pyridin-2-yl)-1,3-dihydro-imidazo[4,5-c]quinolin-2-one], for which the pIC50 is 6.49.

For `Cc1ccncc1-n1c(=O)n(C)c2cnc3ccc(-c4ccc(CO)nc4)cc3c21` [Example 4.1, 8-(6-Hydroxymethyl-pyridin-3-yl)-3-methyl-1-(4-methyl-pyridin-3-yl)-1,3-dihydro-imidazo[4,5-c]quinolin-2-one], the pIC50 was 6.64.

Consider `Cn1c(=O)n(-c2cccnc2)c2c3cc(-c4ccc(CO)nc4)ccc3ncc21` [Example 5.1, 8-(6-Hydroxymethyl-pyridin-3-yl)-3-methyl-1-pyridin-3-yl-1,3-dihydro-imidazo[4,5-c]quinolin-2-one], for which the pIC50 was 7.13.

In the case of `CN(C)c1ccc(-c2ccc3ncc4c(c3c2)n(-c2cccnc2)c(=O)n4C)cn1` [Example 5.3, 8-(6-Dimethylamino-pyridin-3-yl)-3-methyl-1-pyridin-3-yl-1,3-dihydro-imidazo[4,5-c]quinolin-2-one], the pIC50 was 7.33.

For `CCOc1ccc(-c2ccc3ncc4c(c3c2)n(-c2cccnc2F)c(=O)n4C)cn1` [Example 6.1, 8-(6-Ethoxy-pyridin-3-yl)-1-(2-fluoro-pyridin-3-yl)-3-methyl-1,3-dihydro-imidazo[4,5-c]quinolin-2-one], the pIC50 was 7.68.

(Values after patent US20100311714A1, “1H-IMIDAZO[4,5-c]QUINOLINONE COMPOUNDS” (priority 2009, published 2010).)
